Measured values taken from patent US20230183758A1, “METHOD FOR PREPARING DIACYLGLYCEROL BY IMMOBILIZED SN-2 LIPASE” (Shandong Academy of Agricultural Sciences, priority 2021, published 2023).
Entries after “also recorded” stand apart in the source; their conditions may differ.

Target: immobilized enzyme CAL-A and free enzyme CAL-A (Moesziomyces aphidis, UniProt W3VKA4)
Assay: Influence of organic solvents, metal ions and surfactants on enzyme activity
Assay type: biochemical, Candida antarctica
Conditions: for effect of organic solvent on hydrolysis activity: 10% (v/v) and 20% (v/v) solvent
Description: Add 10 mmol/L, 5 mmol/L, l0 mmol/L K+, Al^3+, Fe^2+, Fe3+, Ca^2+, Mg^2+, Mn^2+, Zn^2+, Ba^2+, Na^2+ and other 10 kinds of metal ion solutions to measure the enzyme activity respectively, take the activity of the untreated immobilized enzyme CAL-A and free enzyme CAL-A enzyme as 100%, analyze the influence of metal ions on the enzyme activity. (FIG. 4-G, FIG. 4-H, FIG. 4-I).
Add 10% (v/v) and 20% (v/v) methanol, ethanol, acetonitrile, acetone, n-butanol, isooctane, isopropanol, n-hexane, n-heptane, petroleum ether, tert-butyl Alcohol, glacial acetic acid, ethyl acetate and other 13 kinds of organic solvent solutions respectively, measure the enzyme activity. Take the untreated immobilized enzyme CAL-A and free enzyme CAL-A enzyme activity as 100%, analyze the influence of organic solvent on the enzyme activity.
Add 0.0001%, 0.0005%, 0.001% SDS, TritionX-100, Tween-80, Tween-20, EDTA and other 5 kinds of surfactant solutions respectively, measure the enzyme activity, take the untreated immobilized enzyme CAL-A and free enzyme CAL-A enzyme activity as 100%, analyze the influence of surfactant on enzyme activity.

immobilized enzyme CAL-A and free enzyme CAL-A, sequence (W3VKA4 22-462): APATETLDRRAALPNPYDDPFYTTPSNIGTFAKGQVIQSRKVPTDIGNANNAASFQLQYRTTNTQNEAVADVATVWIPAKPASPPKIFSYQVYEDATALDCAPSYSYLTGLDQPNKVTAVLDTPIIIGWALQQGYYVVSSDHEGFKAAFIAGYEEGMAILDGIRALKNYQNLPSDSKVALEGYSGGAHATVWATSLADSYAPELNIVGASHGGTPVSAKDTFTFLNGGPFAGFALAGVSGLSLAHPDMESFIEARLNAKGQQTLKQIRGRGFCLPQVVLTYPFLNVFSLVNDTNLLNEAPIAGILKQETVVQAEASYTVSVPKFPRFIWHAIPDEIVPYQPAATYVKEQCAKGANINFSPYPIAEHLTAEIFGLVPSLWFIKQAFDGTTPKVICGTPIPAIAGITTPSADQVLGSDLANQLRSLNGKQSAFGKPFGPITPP

Compound | effect of organic solvent on hydrolysis activity (untreated enzyme = 100%) | further results
CCO [ethanol] | significantly inhibit; also recorded: obvious inhibitory effects | 
O=C(O)CN(CCN(CC(=O)O)CC(=O)O)CC(=O)O [EDTA] |  | effect of surfactant on lipase activity (0.0005% EDTA): activating effect; also recorded: activate; effect of surfactant on lipase activity (0.001% EDTA): inhibitory effect; also recorded: inhibit
CC(=O)O [acetic acid] | significantly inhibit; also recorded: obvious inhibitory effects | 
CCCCCC [n-hexane] | significantly inhibit; also recorded: obvious inhibitory effects | 
n-butanol | activate; also recorded: activation effects | 
CCOC(C)=O [ethyl acetate] | activate; also recorded: activation effects | 
O=S(=O)([O-])[O-].[Fe+2] [Fe^2+] |  | effect of metal ion on hydrolysis of immobilized enzymes (metal ion solutions 1, 5, 10 mmol/L, untreated enzyme = 100%): activate
CC(C)(C)O [tert-butanol] | activate; also recorded: activation effects | 
